In brackets after ≈: the same amount, converted by molar mass. Several values for one entry are separate records, joined by “and”; a condition that tells them apart may be missing. Identical values can stand only once. Like-named read-outs stand apart in the source and are kept apart here.
What was measured:
[1] = cited from earlier work
[2] = Evaporation of I2 from I2 and I- mixed solutions in an open and well-ventilated space; assay type: physicochemical; conditions: initial I2 concentration 0.99 mm, open system
Source text: The effects of temperature, concentration of I2, and presence of I— on the evaporation of I2 in I2 and I— mixed solutions were investigated in an open and well-ventilated space. From the experiments, it was confirmed that the evaporation rate of I2 increased exponentially as the solution temperature increased, showing a similar trend with temperature dependence of the saturated vapor pressure of I2.
The phenomenon that I2 evaporation was expedited at higher temperature can be explained by temperature dependency of the evaporation enthalpy and saturated vapor pressure. For an open system, the vapor pressure of elemental iodine increases about 14 torr, or 0.27 psi.

## II [Elemental iodine, Elemental iodine (I2)]
[1]; 20° C.
  free iodine which is soluble in water: 290 ppm
  solubility in water: 0.29 g/L (≈ 1.14 mM)
[1]; 25° C.
  solubility in water: 0.33 g/l and 1.2 mM
[1]; 50° C.
  solubility in water: 0.78 g/L (≈ 3.07 mM)
[1]; 70° C.
  free iodine which is soluble in water: 1,100 ppm
[1]; 80° C.
  free iodine which is soluble in water: 1,250 ppm
  solubility in water: 1.25 g/L (≈ 4.92 mM)
[2]; 50° C.
  lapsed time required to reduce less than 10% of the initial concentration: ~30 min
[2]; 80° C.
  lapsed time required to reduce less than 10% of the initial concentration: ~7 min
